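Dose response: 5 concentrations. Exposure: 48 h. Format: 96-well plates. Endpoint: linear interpolation; highest concentration if not reached. GI50 marks 50% less growth.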 Activity calls are given as the source filed them. Rule as the data show it: active = GI50 up to about 1.1 µM and inactive = higher.
What was measured:
Experiment in all cases: DTP human tumour cell line panel, 48 h
T47D = test system: T47D
IGROV-1 = test system: IGROV-1
OVCAR-5 = test system: OVCAR-5
OVCAR-8 = test system: OVCAR-8
Malme-3M = test system: Malme-3M
MOLT-4 = test system: MOLT-4
KM12 = test system: KM12
UO-31 = test system: UO-31
M14 = test system: M14
HCC 2998 = test system: HCC 2998
UACC-257 = test system: UACC-257
LOX IMVI = test system: LOX IMVI
UACC-62 = test system: UACC-62
CCRF-CEM = test system: CCRF-CEM
SNB-75 = test system: SNB-75
HT-29 = test system: HT-29
NCI/ADR-RES = test system: NCI/ADR-RES
NCI-H226 = test system: NCI-H226
SF-295 = test system: SF-295
NCI-H23 = test system: NCI-H23
SK-OV-3 = test system: SK-OV-3
SNB-19 = test system: SNB-19
CAKI-1 = test system: CAKI-1
EKVX = test system: EKVX
SN12C = test system: SN12C
OVCAR-4 = test system: OVCAR-4
RXF 393 = test system: RXF 393
MDA-N = test system: MDA-N
COLO 205 = test system: COLO 205
SF-268 = test system: SF-268
A549 = test system: A549
A498 = test system: A498
MDA-MB-435 = test system: MDA-MB-435
NCI-H522 = test system: NCI-H522
HCT-15 = test system: HCT-15
DU-145 = test system: DU-145
786-0 = test system: 786-0
PC-3 = test system: PC-3
BT-549 = test system: BT-549
SK-MEL-5 = test system: SK-MEL-5
MCF7 = test system: MCF7
OVCAR-3 = test system: OVCAR-3
MDA-MB-231 = test system: MDA-MB-231
TK-10 = test system: TK-10
NCI-H460 = test system: NCI-H460
SW-620 = test system: SW-620
SF-539 = test system: SF-539
HCT-116 = test system: HCT-116
RPMI-8226 = test system: RPMI-8226
Hs-578T = test system: Hs-578T
SK-MEL-28 = test system: SK-MEL-28
HOP-62 = test system: HOP-62
HOP-92 = test system: HOP-92
SK-MEL-2 = test system: SK-MEL-2
K562 = test system: K562
U-251 = test system: U-251
ACHN = test system: ACHN
HL-60 = test system: HL-60

With `C=C1C(=O)O[C@@H]2[C@H]1C[C@@H](O)[C@H](C)[C@@](O)(C(=O)/C=C/C)[C@H]2OC(=O)C(C)CC` (stereo partly drawn) the GI50 (T47D) was 5.7 µM (inactive), the GI50 (IGROV-1) was 2.58 µM (inactive) and the GI50 (OVCAR-5) was 5.47 µM (inactive). For the same compound, the GI50 (OVCAR-8) was 2.22 µM (inactive), the GI50 (Malme-3M) was 2 µM (inactive) and the GI50 (MOLT-4) was 2.44 µM (inactive). The GI50 (KM12) was 14.8 µM (inactive), the GI50 (UO-31) was 1.82 µM (inactive) and the GI50 (M14) was 3.3 µM (inactive). For the same compound, the GI50 (HCC 2998) was 14.5 µM (inactive), the GI50 (UACC-257) was 3.1 µM (inactive) and the GI50 (LOX IMVI) was 2.93 µM (inactive). For the same compound, the GI50 (UACC-62) was 15.5 µM (inactive), the GI50 (CCRF-CEM) was 0.0428 µM (active) and the GI50 (SNB-75) was 22.6 µM (inactive). The GI50 (HT-29) was 2.24 µM (inactive), the GI50 (NCI/ADR-RES) was 11 µM (inactive) and the GI50 (NCI-H226) was 43.4 µM (inactive). For the same compound, the GI50 (SF-295) was 37.5 µM (inactive), the GI50 (NCI-H23) was 5.31 µM (inactive) and the GI50 (SK-OV-3) was 42.2 µM (inactive). For the same compound, the GI50 (SNB-19) was > 46.3 µM (inactive), the GI50 (CAKI-1) was 1.26 µM (inactive) and the GI50 (EKVX) was 8.57 µM (inactive). The GI50 (SN12C) was 2.64 µM (inactive), the GI50 (OVCAR-4) was 6.97 µM (inactive) and the GI50 (RXF 393) was 2.15 µM (inactive). The GI50 (MDA-N) was 3.08 µM (inactive), the GI50 (COLO 205) was 1.75 µM (inactive) and the GI50 (SF-268) was 15.4 µM (inactive). For the same compound, the GI50 (A549) was 15.2 µM (inactive), the GI50 (A498) was 18.7 µM (inactive) and the GI50 (MDA-MB-435) was 3.29 µM (inactive). The GI50 (NCI-H522) was 1.26 µM (inactive), the GI50 (HCT-15) was 2.44 µM and the GI50 (DU-145) was 4.27 µM (inactive). For the same compound, the GI50 (786-0) was 2.61 µM (inactive), the GI50 (PC-3) was 16.5 µM (inactive) and the GI50 (BT-549) was 5.45 µM (inactive). The GI50 (SK-MEL-5) was 7.28 µM (inactive), the GI50 (MCF7) was 4.81 µM (inactive) and the GI50 (OVCAR-3) was 3.26 µM (inactive). For the same compound, the GI50 (MDA-MB-231) was 5.79 µM (inactive), the GI50 (TK-10) was 3.37 µM (inactive) and the GI50 (NCI-H460) was 28.8 µM (inactive). For the same compound, the GI50 (SW-620) was 2.42 µM (inactive), the GI50 (SF-539) was 7.33 µM (inactive) and the GI50 (HCT-116) was 1.84 µM (inactive). For the same compound, the GI50 (RPMI-8226) was 1.72 µM (inactive), the GI50 (Hs-578T) was 2.72 µM (inactive) and the GI50 (SK-MEL-28) was 7.85 µM (inactive). The GI50 (HOP-62) was 21 µM (inactive), the GI50 (HOP-92) was 3.21 µM (inactive) and the GI50 (SK-MEL-2) was 22.5 µM (inactive). For the same compound, the GI50 (K562) was 2.28 µM (inactive), the GI50 (U-251) was 11.2 µM (inactive) and the GI50 (ACHN) was 2.99 µM (inactive).
In the case of `COC(=O)CC(c1ccccc1)C(C#N)(OP1(=O)OC(c2ccccc2)C(C)N1C)c1ccccc1` (stereo not drawn), the GI50 (T47D) is reported as 68.2 µM (inactive), the GI50 (IGROV-1) is reported as 71.9 µM (inactive) and the GI50 (OVCAR-5) is reported as > 100 µM (inactive). For the same compound, the GI50 (OVCAR-8) was 48 µM (inactive), the GI50 (Malme-3M) was 56.1 µM (inactive) and the GI50 (MOLT-4) was 19.5 µM (inactive). For the same compound, the GI50 (KM12) was 35 µM (inactive), the GI50 (UO-31) was 11.1 µM (inactive) and the GI50 (M14) was 60 µM (inactive). The GI50 (HCC 2998) was > 100 µM (inactive), the GI50 (UACC-257) was 34.9 µM (inactive) and the GI50 (LOX IMVI) was 59.3 µM (inactive). For the same compound, the GI50 (UACC-62) was 47.5 µM (inactive), the GI50 (CCRF-CEM) was 37.8 µM (inactive) and the GI50 (SNB-75) was > 100 µM (inactive). For the same compound, the GI50 (HT-29) was 46.8 µM (inactive), the GI50 (NCI/ADR-RES) was 50.5 µM (inactive) and the GI50 (SF-295) was 71.6 µM (inactive). For the same compound, the GI50 (NCI-H23) was 57.3 µM (inactive), the GI50 (SK-OV-3) was > 100 µM (inactive) and the GI50 (SNB-19) was 73.5 µM (inactive). For the same compound, the GI50 (CAKI-1) was 72.1 µM (inactive), the GI50 (EKVX) was 77.1 µM (inactive) and the GI50 (SN12C) was 30.1 µM (inactive). For the same compound, the GI50 (OVCAR-4) was 33.3 µM (inactive), the GI50 (RXF 393) was > 100 µM (inactive) and the GI50 (MDA-N) was 54.5 µM (inactive). The GI50 (COLO 205) was 21.3 µM (inactive), the GI50 (SF-268) was > 100 µM (inactive) and the GI50 (HL-60) was 26.2 µM (inactive). For the same compound, the GI50 (A549) was 35.2 µM (inactive), the GI50 (A498) was 39.4 µM (inactive) and the GI50 (MDA-MB-435) was 43.4 µM (inactive). For the same compound, the GI50 (NCI-H522) was 35 µM (inactive), the GI50 (HCT-15) was 41.2 µM and the GI50 (DU-145) was > 100 µM (inactive). For the same compound, the GI50 (786-0) was 83.4 µM (inactive), the GI50 (PC-3) was 35.8 µM (inactive) and the GI50 (BT-549) was 64.4 µM (inactive). The GI50 (SK-MEL-5) was 19 µM (inactive), the GI50 (MCF7) was 37.2 µM (inactive) and the GI50 (OVCAR-3) was 77.1 µM (inactive). The GI50 (MDA-MB-231) was > 100 µM (inactive), the GI50 (TK-10) was > 100 µM (inactive) and the GI50 (NCI-H460) was 41.1 µM (inactive). The GI50 (SW-620) was 62.1 µM (inactive), the GI50 (HCT-116) was 48.4 µM (inactive) and the GI50 (RPMI-8226) was 24.7 µM (inactive). For the same compound, the GI50 (Hs-578T) was > 100 µM (inactive), the GI50 (SK-MEL-28) was > 100 µM (inactive) and the GI50 (HOP-62) was > 100 µM (inactive). For the same compound, the GI50 (HOP-92) was 94 µM (inactive), the GI50 (SK-MEL-2) was 27.9 µM (inactive) and the GI50 (K562) was 26.2 µM (inactive). For the same compound, the GI50 (U-251) was 54.1 µM (inactive) and the GI50 (ACHN) was 39.4 µM (inactive).
